Experiments:
Type in all cases: cell-based, human
[1] = test system: 143B cells; test: Isotopomer Spectral Analysis (ISA) of lipogenesis in 143B cells
Description: (§1) Cell Culture, Isotopic Labeling, and Hypoxia. All cell lines were cultured in Dulbecco's Modified Eagle Medium (DMEM; Mediatech) containing 10% fetal bovine serum (FBS; Invitrogen) and 100 U/ml penicillin/streptomycin (P/S; Mediatech) unless otherwise mentioned. Cell lines were obtained from ATCC unless otherwise noted. The VC3 glioma cell line was provided by Tim Lautenschlaeger (Ohio State University), MDA-MB-231 and HCT116 cell lines were provided by Ferdinando Chiaradonna (University of Milano-Bicocca), MRC5 cells were provided by Stephen Lippard (MIT), SN12C, ACHN, and 786-O cells were provided by Kevin Courtney and Lew Cantley (Harvard Medical School), and MCF10A cells were provided by Joan Brugge (Harvard Medical School), and Huh7 cells were provided by Mike Hemann (MIT). MCF10A cells were cultured in custom DMEM/F12 (Hyclone) containing 5% horse serum, 20 ng/ml EGF, 10 μg/ml insulin, 100 ng/ml cholera toxin, 0.5 mg/ml hydrocortisone, 100 U/ml penicillin/streptomycin, and labeled/unlabeled glucose and glutamine at 18 mM and 2.5 mM, respectively. […] The internal gas content was monitored using Fyrite gas analyzers (Bacharach) for CO2 and O2. […]
(§2) Metabolite Extraction and Gas Chromatography/Mass Spectrometry (GC/MS) Analysis. […] In some ISA experiments, cells were trypsinized, counted, and pelleted prior to lipid extraction as described above. […]

[2] = test system: UMRC2 cells; test: ISA of lipogenesis and glucose oxidation in UMRC2 cells expressing ARNT-targeting shRNAs; conditions: UMRC2 cells (VHL-deficient)
Description: as §1, §2

[3] = test system: A549 cells; test: Isotopomer Spectral Analysis (ISA) of lipogenesis in A549 cells
Description: as §1, §2

[4] = test system: 143B osteosarcoma; test: Reductive carboxylation by [1-13C]glutamine labeling and GC/MS in 143B cells expressing shRNAs
Description: as §1, §2

[5] = test system: HCT116 colon carcinoma; test: Reductive carboxylation by [1-13C]glutamine labeling and GC/MS in HCT116 cells expressing shRNAs
Description: as §1, with “respectively. PRC3, WT8, pTV, and pTR cell lines were subcloned from the 786-O cell line as previously described (42, 43). For isotopic labeling experiments, cells were cultured in 6 well plates in glucose- and glutamine-free DMEM (Sigma) containing 10% dialyzed FBS (Invitrogen), 100 U/ml P/S, naturally labeled glucose or glutamine, and the appropriate tracer, including [U-^13C5]glutamine (Isotec), [5-^13C]glutamine (C/D/N Isotopes), [1-^13C]glutamine, [U-^13C6]glucose, [1,2-^13C2]glucose (all from Cambridge Isotope Labs). Steady state labeling of organic and amino acids was accomplished by culturing subconfluent cells in tracer medium for 24 hours.” for “respectively.”
as §2

[6] = test system: A549 cells; test: Reductive glutamine metabolism by isotopic labeling and GC/MS in A549 cells expressing shRNAs; conditions: [U-13C5]glutamine, aspartate, malate, fumarate
Description: as §1, with “respectively. PRC3, WT8, pTV, and pTR cell lines were subcloned from the 786-O cell line as previously described (42, 43). For isotopic labeling experiments, cells were cultured in 6 well plates in glucose- and glutamine-free DMEM (Sigma) containing 10% dialyzed FBS (Invitrogen), 100 U/ml P/S, naturally labeled glucose or glutamine, and the appropriate tracer, including [U-^13C5]glutamine (Isotec), [5-^13C]glutamine (C/D/N Isotopes), [1-^13C]glutamine, [U-^13C6]glucose, [1,2-^13C2]glucose (all from Cambridge Isotope Labs). Steady state labeling of organic and amino acids was accomplished by culturing subconfluent cells in tracer medium for 24 hours.” for “respectively.”
as §2

[7] = test system: A549 cells; test: 13C Metabolic Flux Analysis (MFA) of A549 cells expressing IDH1-targeting shRNAs, [U-13C5]glutamine tracer
Description: (§3) Cell Culture, Isotopic Labeling, and Hypoxia. All cell lines were cultured in Dulbecco's Modified Eagle Medium (DMEM; Mediatech) containing 10% fetal bovine serum (FBS; Invitrogen) and 100 U/ml penicillin/streptomycin (P/S; Mediatech) unless otherwise mentioned. Cell lines were obtained from ATCC unless otherwise noted. The VC3 glioma cell line was provided by Tim Lautenschlaeger (Ohio State University), MDA-MB-231 and HCT116 cell lines were provided by Ferdinando Chiaradonna (University of Milano-Bicocca), MRC5 cells were provided by Stephen Lippard (MIT), SN12C, ACHN, and 786-O cells were provided by Kevin Courtney and Lew Cantley (Harvard Medical School), and MCF10A cells were provided by Joan Brugge (Harvard Medical School), and Huh7 cells were provided by Mike Hemann (MIT). MCF10A cells were cultured in custom DMEM/F12 (Hyclone) containing 5% horse serum, 20 ng/ml EGF, 10 μg/ml insulin, 100 ng/ml cholera toxin, 0.5 mg/ml hydrocortisone, 100 U/ml penicillin/streptomycin, and labeled/unlabeled glucose and glutamine at 18 mM and 2.5 mM, respectively. PRC3, WT8, pTV, and pTR cell lines were subcloned from the 786-O cell line as previously described (42, 43). For isotopic labeling experiments, cells were cultured in 6 well plates in glucose- and glutamine-free DMEM (Sigma) containing 10% dialyzed FBS (Invitrogen), 100 U/ml P/S, naturally labeled glucose or glutamine, and the appropriate tracer, including [U-^13C5]glutamine (Isotec), [5-^13C]glutamine (C/D/N Isotopes), [1-^13C]glutamine, [U-^13C6]glucose, [1,2-^13C2]glucose (all from Cambridge Isotope Labs). Steady state labeling of organic and amino acids was accomplished by culturing subconfluent cells in tracer medium for 24 hours. Labeling of fatty acids for Isotopomer Spectral Analysis (USA) was conducted over 3-5 days of culture in an excess of tracer medium (3-4 ml/well in a 6 well plate) to prevent nutrient depletion. Hypoxic culture was conducted by feeding a custom mixture of 1% O2, 5% CO2, and 94% N2 to a standard incubator controlled at 5% CO2. HEPES (Mediatech) was added to the culture medium at 20 mM to maintain pH between normoxic and hypoxic cultures. The internal gas content was monitored using Fyrite gas analyzers (Bacharach) for CO2 and O2. O2 levels were confirmed at 1.5-2% during hypoxic culture.
Stable cell cultures with decreased IDH1 and IDH2 expression were generated via lentiviral-mediated shRNA expression. pLKO.1 lentiviral vectors targeting IDH1 with shRNA sequences of […] TT (IDH1a; TRCN0000027298; SEQ ID NO:1) and […] TT (IDH1b; TRCN0000027289; SEQ ID NO:2), IDH2 with shRNA sequence […] TT (TRCN0000027225; SEQ ID NO:3). For controls, either non-targeting control shRNA (SHC002; Sigma) or pLKO.1 scrambled control vector (44)(Addgene) were used. pLKO.1 vector targeting ARNT with shRNA sequence […] TT (TRCN0000003819; SEQ ID NO:4) was obtained from Open Biosystems.
HEK293T cells were co-transfected with pLKO.1 vectors and packaging plasmids to produce lentivirus. Filtered supernatants were used for infection, and cells were selected with puromycin (2 μg/ml) for at least two passages before initiating tracer and flux experiments.
Metabolite Extraction and Gas Chromatography/Mass Spectrometry (GC/MS) Analysis. At the conclusion of culture, cells were rinsed with 1 ml ice cold PBS and quenched with 0.4 ml ice cold methanol. An equal volume of water was added, and cells were collected in tubes by scraping with a pipette. One volume of ice cold chloroform was added to each tube, and the extracts were vortexed at 4° C. for 30 minutes. Samples were centrifuged at 14,000 g for 5 minutes at room temperature. For analysis of polar metabolites, the aqueous phase was transferred to a new tube for evaporation under airflow. For ISA experiments, the non-polar fraction was collected and evaporated under airflow. In some ISA experiments, cells were trypsinized, counted, and pelleted prior to lipid extraction as described above. […]

[8] = test system: MDA-MB-231 breast carcinoma; test: Reductive carboxylation by [1-13C]glutamine labeling and GC/MS in MDA-MB-231 cells expressing shRNAs
Description: as §3, with “Labeling of fatty acids for Isotopomer Spectral Analysis (USA) was conducted over 3-5 days of culture in an excess of tracer medium (3-4 ml/well in a 6 well plate) to prevent nutrient depletion. Hypoxic culture was conducted by feeding a custom mixture of 1% O2, 5% CO2, and 94% N2 to a standard incubator controlled at 5% CO2. HEPES (Mediatech) was added to the culture medium at 20 mM to maintain pH between normoxic and hypoxic cultures.” left out, “O2 levels were confirmed at 1.5-2% during hypoxic culture.” left out
as §2

[9] = test system: Hypoxia response element- (HRE-) driven reporter; test: Hypoxia response element (HRE)-driven reporter in HCT116 cells expressing IDH1-targeting shRNAs; conditions: normal culture, hypoxia, or 1 mM DMOG, 18 hours
Description: Luciferase Assays. Subconfluent cells in 6 well plates were co-transfected with 1 μg of a firefly luciferase vector and 50 ng Renilla luciferase vector (pRL-TK; Promega) using Fugene 6 reagent. The ODD-Luciferase and Luciferase vectors were obtained from Addgene and based off of the pcDNA3.1 vector (49). Hypoxia responsive element-luciferase (HRE-Luc) vectors were used as described (50). Approximately 24 hours after transfection, medium was changed and cells were placed under normoxia, hypoxia, or treated with 1 mM dimethyloxalylglycine (DMOG). After 18 hours of treatment, cells were lysed and luciferase activity was determined using the Dual Luciferase Reporter Assay system (Promega) according to the manufacturer's instructions.

[10] = Anaplerotic reactions, exchange flux
[11] = Anaplerotic reactions, net flux
[12] = Pentose Phosphate Pathway, exchange flux
[13] = Pentose Phosphate Pathway, net flux

## CCGGGAGAAGTCAGATGGTTTATTTCTCGAGAAATAAACCATCTGACTTCTCTTT TT (CCGGGAGAAGTCAGATGGTTTATTTCTCGAGAAATAAACCATCTGACTTCTCTTTTT; expressed or natural sequence) [ARNT shRNA, pLKO.1 vector targeting ARNT with shRNA, obtained from Open Biosystems]
[1]
  utilization of [5-13C]glutamine for lipogenesis: reduced
[2]
  glucose oxidation and reductive glutamine metabolism: modulates glucose oxidation and reductive glutamine metabolism
[3]
  utilization of [5-13C]glutamine for lipogenesis: reduced

## CCGGCGAATCATTTGGGAATTGATTCTCGAGAATCAATTCCCAAATGATTCGTTT TT (CCGGCGAATCATTTGGGAATTGATTCTCGAGAATCAATTCCCAAATGATTCGTTTTT; expressed or natural sequence) [IDH1b, pLKO.1 lentiviral vector shRNA targeting IDH1]
[4]
  reductive carboxylation flux: reduces reductive carboxylation flux
[5]
  reductive carboxylation flux (M1 label from [1-13C]glutamine): reduces reductive carboxylation flux
[6]
  M3 mass isotopomers derived from [U-13C5]glutamine (reductive carboxylation): decrease in reductive carboxylation
[7]; Amino acids, exchange flux
  Flux Pyr.m <−> Ala: 0.00 fmol/cell*hr
[7]; Amino acids, net flux
  Flux Gln −> Glu: 24.57 fmol/cell*hr
  Flux Gln.x −> Gln: 25.06 fmol/cell*hr
  Flux Glu −> Glu.x: 19.91 fmol/cell*hr
  Flux Pyr.m −> Ala: 0.42 fmol/cell*hr
[7]; [10]
  Flux Glu <−> Akg: 442.50 fmol/cell*hr
  Flux Mal <−> Pyr.m + CO2: 1.64 fmol/cell*hr
  Flux Oac <−> Asp: 372.30 fmol/cell*hr
[7]; [11]
  Flux Glu −> Akg: 4.16 fmol/cell*hr
  Flux Mal −> Pyr.m + CO2: 3.56 fmol/cell*hr
  Flux Oac −> Asp: 0.60 fmol/cell*hr
  Flux Pyr.m + CO2 −> Oac: 0.00 fmol/cell*hr
[7]; Biomass, net flux
  Flux 0.6*Asp + 0.5*Glu + 0.42*Ala + 0.5*Gln −> Biomass: 1.00 fmol/cell*hr
  Flux AcCoA.c −> Fatty acids: 11.28 fmol/cell*hr
  Flux Cit −> AcCoA.c + Oac: 11.28 fmol/cell*hr
  Flux P5P −> NTP: 0.50 fmol/cell*hr
[7]; Dilution/Mixing
  Flux 0*Pyr.c −> Pyr.mnt: 0.82 fmol/cell*hr
  Flux 0*Pyr.m −> Pyr.mnt: 0.18 fmol/cell*hr
  Flux 0*Suc −> Suc.mnt: 0.85 fmol/cell*hr
  Flux Suc.d −> Suc.mnt: 0.15 fmol/cell*hr
[7]; Dilution/Mixing, exchange flux
  Flux Pyr.c <−> Pyr.m: 49.63 fmol/cell*hr
[7]; Dilution/Mixing, net flux
  Flux Pyr.c −> Pyr.m: 13.19 fmol/cell*hr
[7]; Glycolysis, exchange flux
  Flux DHAP <−> GAP: 550.40 fmol/cell*hr
  Flux G6P <−> F6P: 0.00 fmol/cell*hr
  Flux GAP <−> 3PG: 160.00 fmol/cell*hr
  Flux Pyr.c <−> Lac: 695.70 fmol/cell*hr
[7]; Glycolysis, net flux
  Flux 3PG −> Pyr.c: 217.80 fmol/cell*hr
  Flux DHAP −> GAP: 107.60 fmol/cell*hr
  Flux F6P −> DHAP + GAP: 107.60 fmol/cell*hr
  Flux G6P −> F6P: 102.60 fmol/cell*hr
  Flux GAP −> 3PG: 217.80 fmol/cell*hr
  Flux Glc.x −> G6P: 110.60 fmol/cell*hr
  Flux Lac −> Lac.x: 204.60 fmol/cell*hr
  Flux Pyr.c −> Lac: 204.60 fmol/cell*hr
[7]; [12]
  Flux P5P + E4P <−> F6P + GAP: 1.9E+06 fmol/cell*hr
  Flux P5P + P5P <−> S7P + GAP: 6.3E+07 fmol/cell*hr
  Flux S7P + GAP <−> F6P + E4P: 1.1E+06 fmol/cell*hr
[7]; [13]
  Flux G6P −> P5P + CO2: 8.01 fmol/cell*hr
  Flux P5P + E4P −> F6P + GAP: 2.50 fmol/cell*hr
  Flux P5P + P5P −> S7P + GAP: 2.50 fmol/cell*hr
  Flux S7P + GAP −> F6P + E4P: 2.50 fmol/cell*hr
[7]; TCA Cycle, exchange flux
  Flux Fum <−> Mal: 1.6E+07 fmol/cell*hr
  Flux Mal <−> Oac: 124.70 fmol/cell*hr
  Flux Suc <−> Fum: 0.29 fmol/cell*hr
[7]; TCA Cycle, exchange flux (reductive IDH flux)
  Flux Cit <−> Akg + CO2: 2.39 fmol/cell*hr
[7]; TCA Cycle, net flux
  Flux AcCoA.m + Oac −> Cit: 16.33 fmol/cell*hr
  Flux Akg −> Suc + CO2: 9.21 fmol/cell*hr
  Flux Fum −> Mal: 9.21 fmol/cell*hr
  Flux Mal −> Oac: 5.65 fmol/cell*hr
  Flux Pyr.m −> AcCoA.m + CO2: 16.33 fmol/cell*hr
  Flux Suc −> Fum: 9.21 fmol/cell*hr
[7]; TCA Cycle, net flux (IDH)
  Flux Cit −> Akg + CO2: 5.05 fmol/cell*hr
[8]
  reductive carboxylation flux (M1 label from [1-13C]glutamine): reduces reductive carboxylation flux
[9]
  HRE-driven reporter levels (hypoxia signaling): does not increase hypoxia signaling and stabilization

Source: patent US10064885B2, “Metabolic gene, enzyme, and flux targets for cancer therapy” (Massachusetts Institute of Technology, priority 2010, dated 2018)
